Data reported in the NIST ThermoML archive (doi:10.1016/j.tca.2006.01.008).
± gives the expanded uncertainty stated by the source.

Tests used:
[1] = xn = mol fraction of the nth substance listed; settings: 298.15 K, 101 kPa, Liquid, Vibrating tube method
[2] = refractive index (Na D-line) (dimensionless); xn = mol fraction of the nth substance listed; settings: 298.15 K, 101 kPa, Liquid, Standard Abbe refractometry
[3] = refractive index (Na D-line) (dimensionless); settings: 298.15 K; 101.33 kPa; Liquid; Standard Abbe refractometry
[4] = 298.15 K; 101.33 kPa; Liquid; Vibrating tube method

CC(C)=O [acetone] + O
Settings	mass density, [1] [kg/m3]	refractive index, [2]
x1 = 0.0502	977 ± 0.1	1.3422 ± 0.0004
x1 = 0.0993	959.3 ± 0.1	1.3499 ± 0.0004
x1 = 0.1502	942.2 ± 0.1	1.3549 ± 0.0004
x1 = 0.1996	926.6 ± 0.1	1.3583 ± 0.0004
x1 = 0.2496	911.8 ± 0.1	1.3604 ± 0.0004
x1 = 0.3007	897.6 ± 0.2	1.3616 ± 0.0004
x1 = 0.3507	884.8 ± 0.2	1.3621 ± 0.0004
x1 = 0.4003	873.1 ± 0.2	1.3623 ± 0.0004
x1 = 0.4509	862.1 ± 0.2	1.3621 ± 0.0004
x1 = 0.4992	852.5 ± 0.2	1.3618 ± 0.0004
x1 = 0.5489	843.5 ± 0.2	1.3614 ± 0.0004
x1 = 0.599	835 ± 0.2	1.3609 ± 0.0004
x1 = 0.6506	827 ± 0.2	1.3603 ± 0.0004
x1 = 0.6996	819.9 ± 0.2	1.3602 ± 0.0004
x1 = 0.7014	819.6 ± 0.2	1.3597 ± 0.0004
x1 = 0.7467	813.4 ± 0.2	1.3591 ± 0.0004
x1 = 0.8011	806.2 ± 0.2	1.3592 ± 0.0004
x1 = 0.8015	806.3 ± 0.2	1.3583 ± 0.0004
x1 = 0.846	800.8 ± 0.2	1.3577 ± 0.0004
x1 = 0.8969	794.9 ± 0.2	1.3569 ± 0.0004
x1 = 0.9005	794.5 ± 0.2	1.3572 ± 0.0004
x1 = 0.9451	789.9 ± 0.2	1.3564 ± 0.0004

CC(C)=O [acetone] + CCCCCC
Settings	mass density, [1] [kg/m3]	refractive index, [2]
x1 = 0.0504	657.2 ± 0.3	1.3709 ± 0.0004
x1 = 0.0994	659.7 ± 0.3	1.3699 ± 0.0004
x1 = 0.1511	662.9 ± 0.3	1.3688 ± 0.0004
x1 = 0.1999	666.3 ± 0.3	1.3679 ± 0.0004
x1 = 0.2497	670.1 ± 0.3	1.3668 ± 0.0004
x1 = 0.3006	674.4 ± 0.3	1.366 ± 0.0004
x1 = 0.3518	679 ± 0.3	1.3651 ± 0.0004
x1 = 0.4006	683.7 ± 0.3	1.3643 ± 0.0004
x1 = 0.4476	688.7 ± 0.3	1.3635 ± 0.0004
x1 = 0.4995	694.5 ± 0.3	1.3627 ± 0.0004
x1 = 0.5498	700.7 ± 0.3	1.3618 ± 0.0004
x1 = 0.5976	707 ± 0.3	1.3611 ± 0.0004
x1 = 0.6479	714.1 ± 0.3	1.3603 ± 0.0004
x1 = 0.697	721.7 ± 0.3	1.3595 ± 0.0004
x1 = 0.7503	730.5 ± 0.3	1.3587 ± 0.0004
x1 = 0.7998	739.4 ± 0.3	1.358 ± 0.0004
x1 = 0.8499	749.1 ± 0.3	1.3572 ± 0.0004
x1 = 0.8979	759.3 ± 0.3	1.3568 ± 0.0004
x1 = 0.9507	771.7 ± 0.3	1.3561 ± 0.0004

CCCCCC [hexane]
Settings	mass density [kg/m3]	refractive index
[3]	–	1.3724 ± 0.0004
[4]	655.1 ± 0.3	–

O [water]
Settings	refractive index
[3]	1.3325 ± 0.0004

CC(C)=O [acetone]
Settings	mass density [kg/m3]	refractive index
[3]	–	1.356 ± 0.0004
[4]	784.9 ± 0.27	–
